How the values were obtained:
[1] = biological target: T1, HS1BP3 (full length, GST-tagged) (Homo sapiens, UniProt Q53T59); test: liposome floatation (Nycodenz), Coomassie gel; format: binding; conditions: 5 uM GST-tagged protein, 2 mM total lipid, 20 mM Hepes pH 7.4, 150 mM NaCl, 1 mM MgCl2, 25 °C; PA in liposomes
T1 construct: full length, N-terminal PX domain plus unstructured C terminus; GST-tagged (floatation) or MBP-tagged (lipid strips), expressed in Escherichia coli
T1 sequence (Q53T59 1-392): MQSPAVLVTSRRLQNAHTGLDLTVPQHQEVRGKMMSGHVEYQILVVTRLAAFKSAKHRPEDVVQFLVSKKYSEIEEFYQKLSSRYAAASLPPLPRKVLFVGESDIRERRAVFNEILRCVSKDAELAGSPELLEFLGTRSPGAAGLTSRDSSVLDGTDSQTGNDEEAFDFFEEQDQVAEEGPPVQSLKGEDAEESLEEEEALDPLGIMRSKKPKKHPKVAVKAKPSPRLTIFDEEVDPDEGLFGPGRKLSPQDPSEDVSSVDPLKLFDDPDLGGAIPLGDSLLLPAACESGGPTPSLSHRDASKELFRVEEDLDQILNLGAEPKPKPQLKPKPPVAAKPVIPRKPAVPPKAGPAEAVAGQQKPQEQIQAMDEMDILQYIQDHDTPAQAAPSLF

[2] = biological target: T2, HS1BP3-PX (PX domain, GST-tagged) (Homo sapiens, UniProt Q53T59); test: liposome floatation (Nycodenz), Coomassie gel; format: binding; conditions: 5 uM GST-tagged protein, 2 mM total lipid, 20 mM Hepes pH 7.4, 150 mM NaCl, 1 mM MgCl2, 25 °C; PA in liposomes
T2 construct: N-terminal PX domain only, lacks C-terminal part; by primers starts at Met1 (MQSPAVL) and ends ...EFLGTRS; GST- or MBP-tagged, expressed in Escherichia coli
T2 sequence (Q53T59 1-139): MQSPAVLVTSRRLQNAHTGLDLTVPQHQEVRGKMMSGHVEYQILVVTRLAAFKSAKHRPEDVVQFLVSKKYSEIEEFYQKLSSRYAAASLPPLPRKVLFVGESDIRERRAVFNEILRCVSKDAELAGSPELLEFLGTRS

With `CCCCCCCC/C=C\CCCCCCCC(=O)OC[C@H](COP(=O)(O)O)OC(=O)CCCCCCC/C=C\CCCCCCCC` [dioleyoyl-phosphatidic acid] the “liposome floatation (Nycodenz), Coomassie gel” value [1] was “binding of both HS1BP3 and the PX domain to PA increase with increasing concentrations” and the “liposome floatation (Nycodenz), Coomassie gel” value [2] was “binding of both HS1BP3 and the PX domain to PA increase with increasing concentrations”.
